Target: T1, Recombinant human mPGES-1 (Homo sapiens, UniProt O14684)
T1 sequence (O14684 1-152): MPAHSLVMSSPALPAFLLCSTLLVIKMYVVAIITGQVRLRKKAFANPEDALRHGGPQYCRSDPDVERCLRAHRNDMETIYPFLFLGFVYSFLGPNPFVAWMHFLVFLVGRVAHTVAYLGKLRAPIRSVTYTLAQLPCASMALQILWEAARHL
Assay: In-vitro mPGES-1 enzyme inhibition assay (PGE2 formation from PGH2, HTRF detection)
Assay type: biochemical
Conditions: for inhibition at 1 µM: 1 μM test compound, read-out: Percentage inhibition at 1 μM; for inhibition at 1 µM / inhibition at 10 µM: recombinant human mPGES-1 microsomal fraction; for inhibition at 10 µM: 10 μM test compound, read-out: Percentage inhibition at 10 μM; for IC50: class symbols, selected examples
From the text: In-Vitro Protocol for Screening of mPGES-1 Inhibitors: mPGES-1 (microsomal prostaglandin E synthase-1) is a microsomal enzyme that converts endoperoxide substrate PGH2 (prostaglandin H2) to product PGE2 (prostaglandin E2) by isomerization in the presence of reduced glutathione (GSH). mPGES-1 inhibitors were screened by assessing their ability to inhibit formation of PGE2 from PGH2 in presence of mPGES-1 using anti-PGE2 antibody based detection method. […] Assay was set up using crude microsomal fractions at protein concentration of 40-60 μg/mL. […] Final concentration of DMSO in reaction was 0.5% (v/v). Negative controls comprised of all assay reagents except the enzyme. Positive controls comprised of enzyme reaction in the absence of any inhibitor. […] Reaction was stopped by addition of Stannous chloride (11 mg/ml) and PGE2 levels were measured ([…] et al. […] Inhibition of mPGES-1 enzyme activity was measured using percent of reaction occurring in the positive control. Concentration response curves were plotted using percent inhibition of maximum enzyme reaction. IC50 value was calculated from concentration response curve by nonlinear regression analysis using GraphPad PRISM software.

Compound | inhibition at 1 µM [%] | inhibition at 10 µM [%] | IC50 [nM]
CC1(C)Cc2c(c(C(=O)NCc3ccc(F)cc3)cc3nc(Nc4c(Cl)cncc4Cl)[nH]c23)O1 [Example-26, 2-[(3,5-Dichloropyridin-4-yl)amino]-N-(4-fluorobenzyl)-7,7-dimethyl-7,8-dihydro-1H-furo[3,2-e]benzimidazole-5-carboxamide] | 90.2 | 97.8 | < 50
CC1(C)Cc2c(c(C(=O)NCc3ccccc3C(F)(F)F)cc3nc(Nc4c(F)cccc4Cl)[nH]c23)O1 [Example-80, 2-[(2-Chloro-6-fluorophenyl)amino]-7,7-dimethyl-N-[2-(trifluoromethyl)benzyl]-7,8-dihydro-1H-furo[3,2-e]benzimidazole-5-carboxamide] | 93.2 | 92 | < 50
Cn1c(Nc2c(Cl)cncc2Cl)nc2cc(C(=O)NCC3CC3)c3c(c21)CC(C)(C)O3 [Example-220, N-(Cyclopropylmethyl)-2-((3,5-dichloropyridin-4-yl)amino)-1,7,7-trimethyl-7,8-dihydro-1H-benzofuro[4,5-d]imidazole-5-carboxamide] | 81.5 | 99.8 | 
CC(C)(C)CC(C)(C)NC(=O)c1cc2nc(Nc3c(Cl)cncc3Cl)[nH]c2c2c1OC(C)(C)C2 [Example-25, 2-[(3,5-Dichloropyridin-4-yl)amino]-7,7-dimethyl-N-(2,4,4-trimethylpentan-2-yl)-7,8-dihydro-1H-furo[3,2-e]benzimidazole-5-carboxamide] | 92 | 98.2 | < 50
CC1(C)Cc2c(c(C(=O)NCc3ccccc3Br)cc3nc(Nc4c(Cl)cccc4Cl)[nH]c23)O1 [Example-84, N-(2-Bromobenzyl)-2-[(2,6-dichlorophenyl)amino]-7,7-dimethyl-7,8-dihydro-1H-furo[3,2-e]benzimidazole-5-carboxamide] | 93.7 | 94.4 | < 50
CC1(C)Cc2c(c(C(=O)NCC3CCCCC3)cc3nc(Nc4c(Cl)cncc4Cl)[nH]c23)O1 [Example-27, N-(Cyclohexylmethyl)-2-[(3,5-dichloropyridin-4-yl)amino]-7,7-dimethyl-7,8-dihydro-1H-furo[3,2-e]benzimidazole-5-carboxamide] | 93.7 | 93 | 
CC1(C)Cc2c(c(C(=O)Nc3ccc(C(F)(F)F)c[n+]3[O-])cc3nc(Nc4c(F)cccc4Cl)[nH]c23)O1 [Example-158, 2-(2-((2-Chloro-6-fluorophenyl)amino)-7,7-dimethyl-7,8-dihydro-1H-benzofuro[4,5-d]imidazole-5-carboxamido)-5-(trifluoromethyl)pyridine 1-oxide] | 77 | 97.4 | 
Cc1cc2c(o1)c(C(=O)NC(C)(C)CC(C)(C)C)cc1nc(Nc3c(Cl)cncc3Cl)[nH]c12 [Example-34, 2-[(3,5-Dichloropyridin-4-yl)amino]-7-methyl-N-(2,4,4-trimethylpentan-2-yl)-1H-furo[3,2-e]benzimidazole-5-carboxamide] | 95.5 | 98.7 | < 50
CC1(C)Cc2c(c(C(=O)NC3(c4cccc(C(F)(F)F)c4)CC3)cc3nc(Nc4c(F)cccc4Cl)[nH]c23)O1 [Example-127, 2-((2-Chloro-6-fluorophenyl)amino)-7,7-dimethyl-N-(1-(3-(trifluoromethyl)phenyl)cyclopropyl)-7,8-dihydro-1H-benzofuro[4,5-d]imidazole-5-carboxamide] | 94.7 | 99 | < 50
CC1(C)Cc2c(c(C(=O)NCc3ccccc3C(F)(F)F)cc3nc(Nc4c(Cl)cccc4Cl)[nH]c23)O1 [Example-82, 2-[(2,6-Dichlorophenyl)amino]-7,7-dimethyl-N-[2-(trifluoromethyl)benzyl]-7,8-dihydro-1H-furo[3,2-e]benzimidazole-5-carboxamide] | 94.1 | 97.6 | < 50
CC1(C)Cc2c(c(C(=O)Nc3ccc(C(F)(F)F)cc3)cc3nc(Nc4c(Cl)cncc4Cl)[nH]c23)O1 [Example-10, 2-[(3,5-Dichloropyridin-4-yl)amino]-7,7-dimethyl-N-[4-(trifluoromethyl)phenyl]-7,8-dihydro-1H-furo[3,2-e]benzimidazole-5-carboxamide] | 83.4 | 91.8 | 
CC1CC2CC(C1NC(=O)c1cc3nc(Nc4c(Cl)cncc4Cl)[nH]c3c3c1OC(C)(C)C3)C2(C)C (stereo not drawn) [Example-17, 2-[(3,5-Dichloropyridin-4-yl)amino]-7,7-dimethyl-N-(3,6,6-trimethylbicyclo[3.1.1]hept-2-yl)-7,8-dihydro-1H-furo[3,2-e]benzimidazole-5-carboxamide] | 98 | 96.1 | < 50
Cc1cc2c(o1)c(C(=O)NCC1CC1)cc1nc(Nc3c(Cl)cccc3Cl)[nH]c12 [Example-57, N-(Cyclopropylmethyl)-2-[(2,6-dichlorophenyl)amino]-7-methyl-1H-furo[3,2-e]benzimidazole-5-carboxamide] | 61.7 | 88.2 | 
CC1(C)Cc2c(c(C(=O)Nc3ccc(C(F)(F)F)cc3F)cc3nc(Nc4c(Cl)cncc4Cl)[nH]c23)O1 [Example-194, 2-((3,5-Dichloropyridin-4-yl)amino)-N-(2-fluoro-4-(trifluoromethyl)phenyl)-7,7-dimethyl-7,8-dihydro-1H-benzofuro[4,5-d]imidazole-5-carboxamide] | 99.2 | 100 | 
CC1(C)Cc2c(c(C(=O)Nc3ccc(C(F)(F)F)cc3)cc3nc(Nc4ccc(F)cc4Cl)[nH]c23)O1 [Example-86, 2-[(2-Chloro-4-fluorophenyl)amino]-7,7-dimethyl-N-[4-(trifluoromethyl)phenyl]-7,8-dihydro-1H-furo[3,2-e]benzimidazole-5-carboxamide] | 95 | 98.7 | < 50
Cc1nc2c(o1)c(C(=O)Nc1ccc(Br)cc1)cc1nc(Nc3c(Cl)cccc3Cl)[nH]c12 [Example-179, N-(4-Bromophenyl)-7-[(2,6-dichlorophenyl)amino]-2-methyl-8H-imidazo[4,5-e][1,3]benzoxazole-4-carboxamide] | 93.7 | 97.4 | < 50
Cc1nc2c(o1)c(C(=O)NCc1ccccc1C(F)(F)F)cc1nc(Nc3c(Cl)cccc3Cl)[nH]c12 [Example-188, 7-[(2,6-Dichlorophenyl)amino]-2-methyl-N-[2-(trifluoromethyl)benzyl]-8H-imidazo[4,5-e][1,3]benzoxazole-4-carboxamide] | 98.1 | 99.4 | 50 to 100
CC1(C)Cc2c(c(C(=O)Nc3cccc(C(F)(F)F)c3F)cc3nc(Nc4c(F)cccc4Cl)[nH]c23)O1 [Example-168, 2-((2-Chloro-6-fluorophenyl)amino)-N-(2-fluoro-3-(trifluoromethyl)phenyl)-7,7-dimethyl-7,8-dihydro-1H-benzofuro[4,5-d]imidazole-5-carboxamide] | 92.5 | 97.7 | < 50

— patent publication US8519149B2, “Tricyclic compounds as mPGES-1 inhibitors” (Glenmark Pharmaceuticals S.A., priority 2010, dated 2013)
